# Experimental data as given in patent US12049450B2, “Pyridyloxy-carboxylate derivative and preparation method therefor, herbicidal composition, and use” (Qingdao Kingagroot Chemical Compound Co., Ltd., priority 2018, dated 2024).
# Tests used:
# Format in all cases: in vivo
# Cyperus iria = experiment: Post-emergence test experiment (greenhouse pot, spray at 2-3 leaf stage); conditions: 600 g/ha; for Cyperus iria, activity level (growth inhibition rate): post-emergence, after 3 weeks, from Hunan, resistant to ALS inhibitor herbicides
# Outline: (§1)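 Weed seeds sown in soil-filled pots in greenhouse, sprayed at 2-3 leaf stage (2 weeks after sowing) with compound in acetone/tween-80 plus methyl oleate emulsible concentrate (1.5 L/ha) diluted in water. Fresh-weight growth inhibition scored after 3 weeks on 0-5 scale (5: >85%, 0: <5%).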
# Echinochloa crusgalli = experiment: as above; conditions: for Activity level (growth inhibition rate) Echinochloa crusgalli: 1000 g/ha, post-emergence spray at 2-3 leaf stage, assessed after 3 weeks, fresh weight inhibition rate; for Echinochloa crusgalli, activity level (growth inhibition rate): post-emergence, after 3 weeks, from Hunan, resistant to ALS inhibitor herbicides
# Outline: as §1
# Setaria viridis = experiment: as above; conditions: 600 g/ha
# Outline: as §1
# Japonica rice = experiment: as above; conditions: 600 g/ha; for Japonica rice, activity level (growth inhibition rate): post-emergence, after 3 weeks
# Outline: (§2)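 Activity graded levels 0-5 by fresh-weight inhibition (level 5 above 85%, level 0 below 5%), assessed 3 weeks after treatment. Plants grown in greenhouse pots were sprayed post-emergence at 2-3 leaves using acetone/tween-80 solutions with methyl oleate synergist (1.5 L/ha).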
# Galium spurium = experiment: as above; conditions: 1000 g/ha; post-emergence spray at 2-3 leaf stage; assessed after 3 weeks; fresh weight inhibition rate
# Outline: as §1
# Abutilon theophrasti = experiment: as above; conditions: 1000 g/ha; post-emergence spray at 2-3 leaf stage; assessed after 3 weeks; fresh weight inhibition rate
# Outline: as §1
# Digitaria sanguinalis = experiment: as above; conditions: for Activity level (growth inhibition rate) Digitaria sanguinalis: 1000 g/ha, post-emergence spray at 2-3 leaf stage, assessed after 3 weeks, fresh weight inhibition rate
# Outline: as §1
# Indica rice = experiment: as above; conditions: 600 g/ha; for Indica rice, activity level (growth inhibition rate): post-emergence, after 3 weeks
# Outline: as §2
# Leptochloa chinensis = experiment: as above; conditions: 600 g/ha
# Outline: as §1
# Echinochloa phyllopogon = experiment: as above; conditions: 600 g/ha
# Outline: as §1
# Monochoria vaginalis [1] = experiment: as above; conditions: 1000 g/ha; post-emergence spray at 2-3 leaf stage; assessed after 3 weeks; fresh weight inhibition rate
# Outline: as §1
# Monochoria vaginalis [2] = experiment: Weed control effect evaluation in rice field soil pot; conditions: paddy pot, 1000 g/ha, 14 days after treatment; resistant to pyrazosulfuron-ethyl and penoxsulam
# Excerpt: (§3) The activity level standard of harmful plants destruction (i. e. growth inhibition rate) is as follows: • Level 5: the growth inhibition rate is greater than 85%; • Level 4: the growth inhibition rate is equal to or greater than 60% and less than 85%; • Level 3: the growth inhibition rate is equal to or greater than 40% and less than 60%; • Level 2: the growth inhibition rate is equal to or greater than 20% and less than 40%; • Level 1: the growth inhibition rate is equal to or greater than 5% and less than 20%; • Level 0: the growth inhibition rate is less than 5%;
# (§4) Transplanted rice safety evaluation and weed control effect evaluation in rice field:
# Rice field soil was loaded into a 1/1,000,000 ha pot. The seeds of Monochoria vaginalis were sowed and gently covered with soil, then left to stand still in greenhouse in the state of 0.5-1 cm of water storage. It was kept at 3-4 cm of water storage thereafter. The weeds were treated by dripping the WP or SC water diluents prepared according to the common preparation method of the compounds of the present invention with pipette homogeneously to achieve specified effective amount when Monochoria vaginalis reached 0.5 leaf stage.
# (§5) The fertility condition of Monochoria vaginalis 14 days and rice 21 days after the treatment of the compound of the invention with the naked eye.
# rice (japonica rice) = experiment: Transplanted rice safety evaluation in rice field soil pot; conditions: 1000 g/ha, 21 days after treatment
# Excerpt: as §3, §4
# In addition, the rice field soil that loaded into the 1/1,000,000 ha pot was leveled to keep water storage at 3-4 cm depth. The 3-leaf stage rice (japonica rice) was transplanted at 3 cm of transplanting depth the next day. The compound of the present invention was treated by the same way after 5 days of transplantation.
# as §5
# Soybean = experiment: Spray drift test, application by unmanned gyroplane, soybean field at 10 meters; conditions: 600 g/ha, gyroplane at 1 m, gentle breeze
# Experimental: Broadleaf crops are very sensitive to hormonal herbicides, therefore crop injuries are more likely to occur in case of spray drifting. Tests were conducted in gentle breeze for the compounds of the present invention. The formulation of the compounds of the present invention was applied by DJI unmanned gyroplane with application height of 1 m and water volume of 20 kg/ha. The use rate was 600 g/ha. The active ingredient was dissolved by acetone and diluted to aqueous solution of Tween 80. There's a soybean field at 10 meters from the application area and the height of soybean plants were about 15 cm at the application time.
# [3] = post-emergence comparison, 600 g/ha
Compound,"Cyperus iria, activity level (comparison test) (Cyperus iria; post-emergence comparison)",Activity level (growth inhibition rate) Echinochloa crusgalli (Echinochloa crusgalli),"Echinochloa crusgalli, activity level (comparison test) (Echinochloa crusgalli; [3])","Setaria viridis, activity level (comparison test) (Setaria viridis)","Japonica rice, activity level (comparison test) (Japonica rice; post-emergence comparison)",Activity level (growth inhibition rate) Galium spurium (Galium spurium),Activity level (growth inhibition rate) Abutilon theophrasti (Abutilon theophrasti),Activity level (growth inhibition rate) Digitaria sanguinalis (Digitaria sanguinalis),"Digitaria sanguinalis, activity level (comparison test) (Digitaria sanguinalis; [3])","Indica rice, activity level (comparison test) (Indica rice; post-emergence comparison)","Leptochloa chinensis, activity level (comparison test) (Leptochloa chinensis)","Echinochloa phyllopogon, activity level (comparison test) (Echinochloa phyllopogon)",Activity level (growth inhibition rate) Monochoria Vaginalis (Monochoria vaginalis [1]),"Cyperus iria, activity level (growth inhibition rate) (Cyperus iria)","Echinochloa crusgalli, activity level (growth inhibition rate) (Echinochloa crusgalli; 600 g/ha)","Japonica rice, activity level (growth inhibition rate) (Japonica rice)","Indica rice, activity level (growth inhibition rate) (Indica rice)","Monochoria Vaginalis, activity level (Monochoria vaginalis [2])","Rice, safety level (rice (japonica rice))","Soybean, injury level by spray drift (Soybean)"
CC(Oc1nc(F)c(Cl)c(N)c1Cl)C(=O)OCc1c(F)c(F)c(F)c(F)c1F (stereo not shown) [Compound 238],5 (Level 5: the growth inhibition rate is greater than 85%),5 (Level 5: the growth inhibition rate is greater than 85%),5 (Level 5: the growth inhibition rate is greater than 85%),5 (Level 5: the growth inhibition rate is greater than 85%),0 (Level 0: the growth inhibition rate is less than 5%),5 (Level 5: the growth inhibition rate is greater than 85%),5 (Level 5: the growth inhibition rate is greater than 85%),5 (Level 5: the growth inhibition rate is greater than 85%),5 (Level 5: the growth inhibition rate is greater than 85%),0 (Level 0: the growth inhibition rate is less than 5%),5 (Level 5: the growth inhibition rate is greater than 85%),4 (Level 4: the growth inhibition rate is equal to or greater than 60% and less than 85%),5 (Level 5: the growth inhibition rate is greater than 85%),,,,,,,
CC(Oc1nc(F)c(Cl)c(N)c1Cl)C(=O)OCc1ccccn1 (stereo not shown) [Compound 120],,5 (Level 5: the growth inhibition rate is greater than 85%),,,,5 (Level 5: the growth inhibition rate is greater than 85%),5 (Level 5: the growth inhibition rate is greater than 85%),5 (Level 5: the growth inhibition rate is greater than 85%),,,,,5 (Level 5: the growth inhibition rate is greater than 85%),5 (Level 5: the growth inhibition rate is greater than 85%),5 (Level 5: the growth inhibition rate is greater than 85%),0 (Level 0: the growth inhibition rate is less than 5%),0 (Level 0: the growth inhibition rate is less than 5%),5 (Level 5: the growth inhibition rate is greater than 85%),0 (Level 0: the growth inhibition rate is less than 5%),
CC(Oc1nc(F)c(Cl)c(N)c1Cl)C(=O)SCc1ccc2ncccc2c1 (stereo not shown) [Compound 185],,5 (Level 5: the growth inhibition rate is greater than 85%),,,,5 (Level 5: the growth inhibition rate is greater than 85%),5 (Level 5: the growth inhibition rate is greater than 85%),5 (Level 5: the growth inhibition rate is greater than 85%),,,,,5 (Level 5: the growth inhibition rate is greater than 85%),5 (Level 5: the growth inhibition rate is greater than 85%),5 (Level 5: the growth inhibition rate is greater than 85%),0 (Level 0: the growth inhibition rate is less than 5%),0 (Level 0: the growth inhibition rate is less than 5%),5 (Level 5: the growth inhibition rate is greater than 85%),0 (Level 0: the growth inhibition rate is less than 5%),
CC(Oc1nc(F)c(Cl)c(N)c1Cl)C(=O)OCc1ccccc1 (stereo not shown) [Compound 4],,5 (Level 5: the growth inhibition rate is greater than 85%),,,,5 (Level 5: the growth inhibition rate is greater than 85%),5 (Level 5: the growth inhibition rate is greater than 85%),5 (Level 5: the growth inhibition rate is greater than 85%),,,,,5 (Level 5: the growth inhibition rate is greater than 85%),5 (Level 5: the growth inhibition rate is greater than 85%),5 (Level 5: the growth inhibition rate is greater than 85%),0 (Level 0: the growth inhibition rate is less than 5%),0 (Level 0: the growth inhibition rate is less than 5%),5 (Level 5: the growth inhibition rate is greater than 85%),0 (Level 0: the growth inhibition rate is less than 5%),0 (Level 0: the growth inhibition rate is less than 5%)
COc1c(Cl)ccc(COC(=O)C(C)Oc2nc(F)c(Cl)c(N)c2Cl)c1F (stereo not shown) [Compound 85],,5 (Level 5: the growth inhibition rate is greater than 85%),,,,5 (Level 5: the growth inhibition rate is greater than 85%),5 (Level 5: the growth inhibition rate is greater than 85%),5 (Level 5: the growth inhibition rate is greater than 85%),,,,,5 (Level 5: the growth inhibition rate is greater than 85%),5 (Level 5: the growth inhibition rate is greater than 85%),5 (Level 5: the growth inhibition rate is greater than 85%),0 (Level 0: the growth inhibition rate is less than 5%),0 (Level 0: the growth inhibition rate is less than 5%),5 (Level 5: the growth inhibition rate is greater than 85%),0 (Level 0: the growth inhibition rate is less than 5%),
